Source: patent US12479849B2, “EGFR inhibitors for the treatment of cancer” (Hoffmann-La Roche Inc., priority 2019, dated 2025)

Target: T1, EGFR TMLRCS (Homo sapiens, UniProt P00533, C797S/L858R/T790M)
T1 construct: host or cells: BaF3-TMLRCS (Ba/F3 cells, kept under puromycin selection)
Test: HTRF Phospho EGFR TMLRCS Assay (Cellular)
Type: cell-based
Details: BaF3-TMLRCS cell line, 4 hours incubation, Phospho-EGFR HTRF readout
Procedure, shortened: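 BaF3 cells expressing EGFR L858R/T790M/C797S, 20000/well, treated with compound in dose response for 4 h at 37 °C, 5% CO2. After lysis, phospho-EGFR detected by HTRF with cryptate and d2 antibodies over 4 h at room temperature. Signal taken as 665/616 nm ratio ×10000, normalized.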

T1 sequence (P00533 25-1210 T790M/C797S/L858R): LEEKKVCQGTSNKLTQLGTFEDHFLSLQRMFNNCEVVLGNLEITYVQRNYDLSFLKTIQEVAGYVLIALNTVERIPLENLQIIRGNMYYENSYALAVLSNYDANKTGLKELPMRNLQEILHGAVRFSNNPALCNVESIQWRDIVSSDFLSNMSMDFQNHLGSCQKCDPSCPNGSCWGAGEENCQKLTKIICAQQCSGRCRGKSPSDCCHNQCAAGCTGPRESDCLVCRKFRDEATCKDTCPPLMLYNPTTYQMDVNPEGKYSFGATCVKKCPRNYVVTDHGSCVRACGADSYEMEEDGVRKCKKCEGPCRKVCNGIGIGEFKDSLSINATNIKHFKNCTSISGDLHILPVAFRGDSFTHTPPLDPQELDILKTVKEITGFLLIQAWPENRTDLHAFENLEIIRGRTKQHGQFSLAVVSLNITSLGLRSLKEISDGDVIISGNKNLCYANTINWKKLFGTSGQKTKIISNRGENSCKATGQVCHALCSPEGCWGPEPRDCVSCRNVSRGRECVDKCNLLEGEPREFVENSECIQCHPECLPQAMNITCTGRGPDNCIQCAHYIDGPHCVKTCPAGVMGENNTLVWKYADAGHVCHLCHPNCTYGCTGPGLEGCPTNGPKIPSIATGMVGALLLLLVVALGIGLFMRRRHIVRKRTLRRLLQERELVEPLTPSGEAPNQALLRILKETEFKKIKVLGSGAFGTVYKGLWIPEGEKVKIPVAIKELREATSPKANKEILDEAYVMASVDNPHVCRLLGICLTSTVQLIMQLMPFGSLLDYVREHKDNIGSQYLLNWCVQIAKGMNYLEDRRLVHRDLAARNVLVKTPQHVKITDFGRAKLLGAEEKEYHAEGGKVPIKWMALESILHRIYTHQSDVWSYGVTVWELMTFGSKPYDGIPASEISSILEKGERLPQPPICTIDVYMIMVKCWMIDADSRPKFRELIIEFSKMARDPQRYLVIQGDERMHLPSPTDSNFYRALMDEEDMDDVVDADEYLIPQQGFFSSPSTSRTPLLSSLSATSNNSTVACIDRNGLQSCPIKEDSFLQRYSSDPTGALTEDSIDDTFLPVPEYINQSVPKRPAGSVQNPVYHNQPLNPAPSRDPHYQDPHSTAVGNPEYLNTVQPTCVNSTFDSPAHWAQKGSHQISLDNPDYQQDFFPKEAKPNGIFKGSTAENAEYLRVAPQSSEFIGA

Row | Structure (SMILES) | IC50
1 | O=C(Nc1nccs1)C(c1ncn2c1C[C@@H](F)C2)n1cc2c(Cl)cc(-c3ccc(N4CCN5CCC4C5)cc3)c(Cl)c2n1 (mixture of isomers) [Example 72, rac-2-(6-(4-(1,4-Diazabicyclo[3.2.1]octan-4-yl)phenyl)-4,7-dichloro-2H-indazol-2-yl)-2-((R)-6-fluoro-6,7-dihydro-5H-pyrrolo[1,2-c]imidazol-1-yl)-N-(thiazol-2-yl)acetamide] | 5 nM
2 | CC(CCO)N1CCC(Oc2ccc(-c3cc(Cl)c4cn(C(C(=O)Nc5nccs5)c5ncn6c5C[C@@H](F)C6)nc4c3Cl)cc2)CC1 (mixture of isomers) [Example 86, 2-[4,7-Dichloro-6-[4-[[1-(3-hydroxy-1-methyl-propyl)-4-piperidyl]oxy]phenyl]indazol-2-yl]-2-[rac-(6R)-6-fluoro-6,7-dihydro-5H-pyrrolo[1,2-c]imidazol-1-yl]-N-thiazol-2-yl-acetamide] | 6 nM
3 | CCN(CC)CC1(c2ccc(-c3cc(C)c4cn(C(C(=O)Nc5nccs5)c5ncn6c5C[C@@H](F)C6)nc4c3C)cc2)CC1 (stereo partly drawn) [Example 122, 2-(6-(4-(1-((Diethylamino)methyl)cyclopropyl)phenyl)-4,7-dimethyl-2H-indazol-2-yl) ((R)-6-fluoro-6,7-dihydro-5H-pyrrolo[1,2-c]imidazol-1-yl)-N-(thiazol-2-yl)acetamide] | 19 nM
4 | O=C(Nc1nccs1)C(c1ncn2c1C[C@@H](F)C2)n1cc2c(Cl)cc(-c3ccc(N4CCC(O)CC4)cc3)c(Cl)c2n1 (mixture of isomers) [Example 39, rac-2-(4,7-Dichloro-6-(4-(4-hydroxypiperidin-1-yl)phenyl)-2H-indazol-2-yl)-2-((R)-6-fluoro-6,7-dihydro-5H-pyrrolo[1,2-c]imidazol-1-yl)-N-(thiazol-2-yl)acetamide] | 4 nM
5 | CC1(O)CCN(Cc2ccc(-c3cc(Cl)c4cn(C(C(=O)Nc5nccs5)c5ncn6c5C[C@@H](F)C6)nc4c3Cl)cc2)CC1 (mixture of isomers) [Example 97, rac-2-(4,7-Dichloro-6-(4-((4-hydroxy-4-methylpiperidin-1-yl)methyl)phenyl)-2H-indazol-2-yl)-2-((R)-6-fluoro-6,7-dihydro-5H-pyrrolo[1,2-c]imidazol-1-yl)-N-(thiazol-2-yl)acetamide] | 5 nM
6 | Cc1cc(-c2ccc(N3CCOCC3)cc2)c(Cl)c2nn(C(C(=O)Nc3nccs3)c3ncn4c3CCC4)cc12 (centres unmarked) [Example 126, 2-(7-Chloro-4-methyl-6-(4-morpholinophenyl)-2H-indazol-2-yl)-2-(6,7-dihydro-5H-pyrrolo[1,2-c]imidazol-1-yl)-N-(thiazol-2-yl)acetamide] | 9 nM
7 | O=C(Nc1nccs1)C(c1ncn2c1CCC2)n1cc2c(Cl)cc(-c3ccc(C4CCN(CCF)CC4)cc3)c(Cl)c2n1 (centres unmarked) [Example 103, 2-(4,7-Dichloro-6-(4-(1-(2-fluoroethyl)piperidin-4-yl)phenyl)-2H-indazol-2-yl)-2-(6,7-dihydro-5H-pyrrolo[1,2-c]imidazol-1-yl)-N-(thiazol-2-yl)acetamide] | 20 nM
8 | O=C(Nc1nccs1)C(c1ncn2c1C[C@@H](F)C2)n1cc2c(Cl)cc(-c3ccc(CN4CCC5(CC4)CC(O)C5)cc3)c(Cl)c2n1 (mixture of isomers) [Example 91, rac-2-(4,7-Dichloro-6-(4-((2-hydroxy-7-azaspiro[3.5]nonan-7-yl)methyl)phenyl)-2H-indazol-2-yl)-2-((R)-6-fluoro-6,7-dihydro-5H-pyrrolo[1,2-c]imidazol-1-yl)-N-(thiazol-2-yl)acetamide] | 8 nM
9 | CCN1CC(c2ccc(-c3cc(Cl)c4cn(C(C(=O)Nc5nccs5)c5ncn6c5C[C@@H](F)C6)nc4c3Cl)cc2)C1 (stereo partly drawn) [Example 83, 2-(4,7-Dichloro-6-(4-(1-ethylazetidin-3-yl)phenyl)-2H-indazol-2-yl)-2-((R)-6-fluoro-6,7-dihydro-5H-pyrrolo[1,2-c]imidazol-1-yl)-N-(thiazol-2-yl)acetamide] | 10 nM
10 | N#Cc1cc(-c2cc(Cl)c3cn(C(C(=O)Nc4nccs4)c4ncn5c4C[C@@H](F)C5)nc3c2Cl)ccc1N1CCOCC1 (mixture of isomers) [Example 36, rac-2-(4,7-Dichloro-6-(3-cyano-4-morpholinophenyl)-2H-indazol-2-yl)-2-((R)-6-fluoro-6,7-dihydro-5H-pyrrolo[1,2-c]imidazol-1-yl)-N-(thiazol-2-yl)acetamide] | 9 nM
11 | O=C(Nc1nccs1)C(c1ncn2c1C[C@@H](F)C2)n1cc2c(Cl)cc(-c3ccc(N4CCN(CCO)CC4)cc3)c(Cl)c2n1 (mixture of isomers) [Example 61, rac-2-(4,7-Dichloro-6-(4-(4-(2-hydroxyethyl)piperazin-1-yl)phenyl)-2H-indazol-2-yl)-2-((R)-6-fluoro-6,7-dihydro-5H-pyrrolo[1,2-c]imidazol-1-yl)-N-(thiazol-2-yl)acetamide] | 3 nM
12 | O=C(Nc1nccs1)C(c1ncn2c1C[C@@H](F)C2)n1cc2c(Cl)cc(-c3ccc(OCCN4CC5(CC(O)C5)C4)cc3)c(Cl)c2n1 (stereo partly drawn) [Example 88, 2-(4,7-Dichloro-6-(4-(2-(6-hydroxy-2-azaspiro[3.3]heptan-2-yl)ethoxy)phenyl)-2H-indazol-2-yl)-2-((R)-6-fluoro-6,7-dihydro-5H-pyrrolo[1,2-c]imidazol-1-yl)-N-(thiazol-2-yl)acetamide] | 7 nM
13 | O=C(Nc1nccs1)C(c1ncn2c1C[C@@H](F)C2)n1cc2c(Cl)cc(-c3ccc(N4CC5(CCNCC5)C4)cc3)c(Cl)c2n1 (stereo partly drawn) [Example 69, 2-(6-(4-(2,7-Diazaspiro[3.5]nonan-2-yl)phenyl)-4,7-dichloro-2H-indazol-2-yl)-2-((R)-6-fluoro-6,7-dihydro-5H-pyrrolo[1,2-c]imidazol-1-yl)-N-(thiazol-2-yl)acetamide] | 4 nM
14 | Cc1cc(-c2ccc(OCCN3CCC(CO)CC3)cc2)c(Cl)c2nn(C(C(=O)Nc3nccs3)c3ncn4c3C[C@@H](F)C4)cc12 (mixture of isomers) [Example 132, rac-2-(7-Chloro-6-(4-(2-(4-(hydroxymethyl)piperidin-1-yl)ethoxy)phenyl)-4-methyl-2H-indazol-2-yl)-2-((R)-6-fluoro-6,7-dihydro-5H-pyrrolo[1,2-c]imidazol-1-yl)-N-(thiazol-2-yl)acetamide] | 7 nM
15 | O=C(Nc1nccs1)C(c1ncn2c1C[C@@H](F)C2)n1cc2c(Cl)cc(-c3ccc(CCN4CCC(CO)C4)cc3)c(Cl)c2n1 (mixture of isomers) [Example 52, rac-2-(4,7-Dichloro-6-(4-(2-(3-(hydroxymethyl)pyrrolidin-1-yl)ethyl)phenyl)-2H-indazol-2-yl)-2-((R)-6-fluoro-6,7-dihydro-5H-pyrrolo[1,2-c]imidazol-1-yl)-N-(thiazol-2-yl)acetamide] | 6 nM
16 | CN(Cc1ccc(-c2cc(Cl)c3cn(C(C(=O)Nc4nccs4)c4ncn5c4C[C@@H](F)C5)nc3c2Cl)cc1)C1CCCC(O)C1 (mixture of isomers) [Example 95, rac-2-(4,7-Dichloro-6-(4-(((3-hydroxycyclohexyl)(methyl)amino)methyl)phenyl)-2H-indazol-2-yl)-2-((R)-6-fluoro-6,7-dihydro-5H-pyrrolo[1,2-c]imidazol-1-yl)-N-(thiazolyl)acetamide] | 6 nM

Further compounds by falling IC50, results first:

Row | IC50 | Structure (SMILES)
17 | 14 nM | CCN1CC[C@@H](c2ccc(-c3cc(C)c4cn(C(C(=O)Nc5nccs5)c5ncn6c5C[C@@H](F)C6)nc4c3C)cc2)[C@H](F)C1 (single isomer, unassigned) [Example 119]
18 | 12 nM | O=C(Nc1nccs1)C(c1ncn2c1C[C@@H](F)C2)n1cc2c(Cl)cc(-c3ccc(C45CC(CN6CCC(CO)CC6)(C4)C5)cc3)c(Cl)c2n1 (mixture of isomers) [Example 50, rac-2-(4,7-Dichloro-6-(4-(3-((4-(hydroxymethyl)piperidin-1-yl)methyl)bicyclo[1.1.1]pentan-1-yl)phenyl)-2H-indazol-2-yl)-2-((R)-6-fluoro-6,7-dihydro-5H-pyrrolo[1,2-c]imidazol-1-yl)-N-(thiazol-2-yl)acetamide]
19 | 10 nM | CCN1CCCC2(C1)CN(c1ccc(-c3cc(Cl)c4cn(C(C(=O)Nc5nccs5)c5ncn6c5C[C@@H](F)C6)nc4c3Cl)cc1)C2 (stereo partly drawn) [Example 73, 2-(4,7-Dichloro-6-(4-(6-ethyl-2,6-diazaspiro[3.5]nonan-2-yl)phenyl)-2H-indazol-2-yl)-2-((R)-6-fluoro-6,7-dihydro-5H-pyrrolo[1,2-c]imidazol-1-yl)-N-(thiazol-2-yl)acetamide]
20 | 9 nM | O=C(Nc1nccs1)C(c1ncn2c1C[C@@H](F)C2)n1cc2c(Cl)cc(-c3ccc(C4CCN(C5CC(O)C5)CC4)cc3)c(Cl)c2n1 (mixture of isomers) [Example 87, rac-2-(4,7-Dichloro-6-(4-(1-(3-hydroxycyclobutyl)piperidin-4-yl)phenyl)-2H-indazol-2-yl)-2-((R)-6-fluoro-6,7-dihydro-5H-pyrrolo[1,2-c]imidazol-1-yl)-N-(thiazol-2-yl)acetamide]
21 | 8 nM | O=C(Nc1nccs1)C(c1ncn2c1C[C@@H](F)C2)n1cc2c(Cl)cc(-c3ccc(CCN4CCC(O)C4)cc3)c(Cl)c2n1 (mixture of isomers) [Example 70, rac-2-(4,7-Dichloro-6-(4-(2-(3-hydroxypyrrolidin-1-yl)ethyl)phenyl)-2H-indazol-2-yl) ((R)-6-fluoro-6,7-dihydro-5H-pyrrolo[1,2-c]imidazol-1-yl)-N-(thiazol-2-yl)acetamide]
22 | 6 nM | CN(C)CCc1ccc(-c2cc(Cl)c3cn(C(C(=O)Nc4nccs4)c4ncn5c4C[C@@H](F)C5)nc3c2Cl)cc1 (stereo partly drawn) [Example 35, 2-(4,7-Dichloro-6-(4-(2-(dimethylamino)ethyl)phenyl)-2H-indazol-2-yl)-2-((R)-6-fluoro-6,7-dihydro-5H-pyrrolo[1,2-c]imidazol-1-yl)-N-(thiazol-2-yl)acetamide]
23 | 5 nM | O=C(Nc1nccs1)C(c1ncn2c1C[C@@H](F)C2)n1cc2c(Cl)cc(-c3ccc(CN4CC5(COC5)C4)cc3)c(Cl)c2n1 (mixture of isomers) [Example 63, rac-2-(6-(4-((2-Oxa-6-azaspiro[3.3]heptan-6-yl)methyl)phenyl)-4,7-dichloro-2H-indazol-2-yl)-2-((R)-6-fluoro-6,7-dihydro-5H-pyrrolo[1,2-c]imidazol-1-yl)-N-(thiazol-2-yl)acetamide]
